Measured values published in BindingDB's records for doi:10.1021/jm0506625 (Washington University, 2005).
Where a SMILES comes first, the peptide text is derived from it. [ ]: non-standard residue; d: D form. ξ: configuration not given here. Ile(3ξ) = CCC(C)[C@H](N)C(=O)O; Thr(3ξ) = CC(O)[C@H](N)C(=O)O

How the values were obtained:
Caspase-3 = biological target: T1, Caspase-3 (Homo sapiens, UniProt P42574); assay: Caspase Inhibition Assay
T1 sequence (P42574 whole entry): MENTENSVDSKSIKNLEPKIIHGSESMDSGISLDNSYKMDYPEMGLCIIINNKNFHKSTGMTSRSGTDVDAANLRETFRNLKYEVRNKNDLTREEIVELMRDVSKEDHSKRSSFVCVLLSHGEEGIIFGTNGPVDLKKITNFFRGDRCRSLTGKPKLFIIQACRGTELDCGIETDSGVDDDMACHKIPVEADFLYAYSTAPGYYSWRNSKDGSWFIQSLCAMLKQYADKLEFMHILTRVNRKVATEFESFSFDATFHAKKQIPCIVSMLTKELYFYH
Protocol: (§1) The substrate peptides terminating in AMC are processed by caspases with or without inhibitors. […] Compounds were tested in duplicate, and IC50 curves were calculated for all inhibitors. Final IC50s were the average of three independent experiments.

Caspase-8 = Caspase-8 (Homo sapiens, UniProt Q14790); assay: Caspase Inhibition Assay
Protocol: as §1

Chain of Caspase-8 (Q14790 217-374 limits assumed): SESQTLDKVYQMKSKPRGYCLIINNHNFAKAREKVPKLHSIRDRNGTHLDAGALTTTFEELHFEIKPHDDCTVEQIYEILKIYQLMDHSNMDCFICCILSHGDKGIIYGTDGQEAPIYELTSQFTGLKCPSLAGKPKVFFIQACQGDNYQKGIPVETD
Chain of Caspase-8 (Q14790 385-479 limits assumed): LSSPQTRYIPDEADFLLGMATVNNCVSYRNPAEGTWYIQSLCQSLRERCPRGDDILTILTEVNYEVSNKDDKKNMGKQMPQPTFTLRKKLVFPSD

SMILES	Ki (Caspase-3)	IC50 (Caspase-8)
COc1ccc(CN2C(=O)C(=O)c3cc(S(=O)(=O)N4CCC[C@H]4COc4cccnc4)ccc32)cc1 [1-[(4-methoxyphenyl)methyl]-5-{[(2S)-2-[(pyridin-3-yloxy)methyl]pyrrolidine-1-]sulfonyl}-2,3-dihydro-1H-indole-2,3-dione]	4.4 nM	
CCC(C)[C@H](NC(C)=O)C(=O)N[C@@H](CCC(=O)O)C(=O)N[C@H](C(=O)N[C@H](C=O)CC(=O)O)C(C)O (stereo partly drawn) [(4S)-4-{[(1S)-1-{[(2S)-1-carboxy-3-oxopropan-2-yl]carbamoyl}-2-hydroxypropyl]carbamoyl}-4-[(2S)-2-acetamido-3-methylpentanamido]butanoic acid] (Ac-[Ile(3ξ)]E[Thr(3ξ)]D-aldehyde)		4.7 nM
